Measurements as given in patent US20090191193A1, “Aryl Vinyl Sulfides, Sulfones, Sulfoxides and Sulfonamides, Derivatives Thereof and Therapeutic Uses Thereof” (TEMPLE UNIVERSITY-OF THE COMMONWEALTH SYSTEM OF HIGHER …, priority 2006, published 2009).

Legend:
DLD1 (colon carcinoma) = test: Effect on tumor cell lines, viable cell count by trypan blue exclusion (Latham et al.): DLD1; type: cell-based; conditions: Homo sapiens, DLD-1, DLD1 colon carcinoma cells, viable cell count 96 hours after treatment
Method: (§1) The effect of the compounds of the invention on tumor cells was determined by the assay described by Latham et al., Oncogene 12:827-837 (1996). Tumor cells DU145 (prostate cancer), K562 (chronic myelogenous leukaemia), BT20 (breast carcinoma), H157 (non small cell lung carcinoma), or DLD1 (colon carcinoma) were plated in 6-well dishes at a cell density of 1.0×10^5 cells per 35-mm^2 well. The plated cells were treated 24 hours later with a compound of the invention dissolved in DMSO at multiple concentrations ranging from 100 nM to 10 μM. The total number of viable cells was determined 96 hours later by trypsinizing the wells and counting the number of viable cells, as determined by trypan blue exclusion, using a hemacytometer. Normal HFL cells were treated with the same compounds under the same conditions of concentration and time.

[1] = tested on: H157 (non small cell lung carcinoma); test: Effect on tumor cell lines, viable cell count by trypan blue exclusion (Latham et al.): H157; type: cell-based; conditions: Homo sapiens, NCI-H157, H157 non small cell lung carcinoma cells, viable cell count 96 hours after treatment
Method: as §1

DU145 (prostate cancer) = test: Effect on tumor cell lines, viable cell count by trypan blue exclusion (Latham et al.): DU145; type: cell-based; conditions: Homo sapiens, DU-145, 96 h, DU145 prostate cancer cells, viable cell count 96 hours after treatment
BT20 (breast carcinoma) = test: Effect on tumor cell lines, viable cell count by trypan blue exclusion (Latham et al.): BT20; type: cell-based; conditions: Homo sapiens, BT-20, BT20 breast carcinoma cells, viable cell count 96 hours after treatment
Method: as §1

[2] = tested on: K562 (chronic myelogenous leukaemia); test: Effect on tumor cell lines, viable cell count by trypan blue exclusion (Latham et al.): K562; type: cell-based; conditions: Homo sapiens, K562, 96 h, K562 chronic myelogenous leukaemia cells, viable cell count 96 hours after treatment

Compound	IC50 (DLD1 (colon carcinoma))	melting point	IC50 [1]	IC50 (DU145 (prostate cancer))	IC50 (BT20 (breast carcinoma))	IC50 [2]
COc1cccc(OC)c1/C=C(\C(N)=O)S(=O)(=O)c1ccccc1 [Example 179]	10 to 20 µM	168 to 172 °C	10 to 20 µM	10 to 20 µM	10 to 20 µM	
NC(=O)/C(=C\c1ccc([N+](=O)[O-])cc1)S(=O)(=O)Cc1ccc(Cl)cc1 [Example 176]	> 20 µM	190 to 192 °C	> 20 µM	> 20 µM	> 20 µM	
COc1cc(OC)c(/C=C(\C(N)=O)S(=O)(=O)Cc2ccc(Cl)cc2)c(OC)c1 [Example 174]	> 20 µM	176 to 178 °C	> 20 µM	> 20 µM	> 20 µM	
COc1ccc(S(=O)(=O)/C(=C/c2ccc([N+](=O)[O-])cc2)C(N)=O)cc1 [Example 184]	> 20 µM	172 to 174 °C	> 20 µM	> 20 µM	> 20 µM	
NC(=O)/C(=C\c1ccc(Cl)cc1)S(=O)(=O)Cc1ccc(Cl)cc1Cl [Example 150]	> 20 µM	201 to 205 °C	> 20 µM	> 20 µM	> 20 µM	
COc1ccc(S(=O)(=O)/C(=C/c2c(OC)cccc2OC)C(N)=O)cc1 [Example 183]	> 20 µM	160 to 162 °C	> 20 µM	> 20 µM	> 20 µM	
COc1ccc(CS(=O)(=O)/C(=C/c2ccc(F)cc2)C(N)=O)cc1 [Example 172]	> 20 µM	158 to 161 °C	> 20 µM	> 20 µM	> 20 µM	
COc1cccc(OC)c1/C=C(\C(N)=O)S(=O)(=O)Cc1ccc(Cl)cc1 [Example 175]	10 to 20 µM	150 to 154 °C	10 to 20 µM	10 to 20 µM	10 to 20 µM	
NC(=O)/C(=C\c1ccc(F)cc1)S(=O)(=O)c1ccccc1 [Example 177]	1 to 10 µM	151 to 154 °C	1 to 10 µM	1 to 10 µM	1 to 10 µM	
Cc1ccc(/C=C(\C#N)S(=O)(=O)Cc2ccc(Cl)cc2Cl)cc1C [Example 97]		126 to 142 °C		> 100 µM		> 100 µM
Cc1ccc(NS(=O)(=O)/C(C#N)=C/c2ccccc2Cl)c(C)c1 [Example 256]		116 to 119 °C		25 to 50 µM		1 to 10 µM
Cc1ccc(NS(=O)(=O)/C(C#N)=C/c2c[nH]c3ccccc23)c(C)c1 [Example 253]		192 to 194 °C		50 to 100 µM		25 to 50 µM
N#C/C(=C\c1ccccc1Cl)S(=O)(=O)Cc1ccccc1 [Example 130]		155 to 160 °C		> 100 µM		> 100 µM
COc1ccc(NS(=O)(=O)/C(C#N)=C/c2cc(OC)c(OC)cc2OC)cc1 [Example 284]		171 to 173 °C		> 100 µM		25 to 50 µM
Cc1ccc(C)c(/C=C(\C#N)S(=O)(=O)Nc2ccc(Br)cc2)c1 [Example 229]		172 to 174 °C		50 to 100 µM		25 to 50 µM
COc1ccc(/C=C(\C#N)S(=O)(=O)Cc2ccccc2)cc1OC [Example 133]		170 to 174 °C		> 100 µM		50 to 100 µM
N#C/C(=C\c1ccoc1)S(=O)(=O)Cc1ccc(Cl)cc1Cl [Example 104]		116 to 122 °C		> 100 µM		50 to 100 µM
COc1ccc(/C=C(\C#N)S(=O)(=O)Cc2ccccc2)c(OC)c1 [Example 132]		125 to 130 °C		> 100 µM		> 100 µM
N#C/C(=C\c1ccc(O)cc1O)S(=O)(=O)Cc1ccc(Cl)cc1 [Example 60]		250 to 255 °C		> 100 µM		> 100 µM
CN(C)c1ccc(/C=C(\C#N)S(=O)(=O)Cc2ccc(F)cc2)cc1 [Example 64]		135 to 145 °C		50 to 100 µM		50 to 100 µM
N#C/C(=C\c1ccc(Br)cc1)S(=O)(=O)Nc1ccc(Br)cc1 [Example 217]		174 to 176 °C		50 to 100 µM		25 to 50 µM
N#C/C(=C\c1ccccc1O)S(=O)(=O)Cc1ccc(Cl)cc1Cl [Example 108]		219 to 223 °C		> 100 µM		> 100 µM
Cc1ccc(/C=C(\C#N)S(=O)(=O)Nc2ccc(F)cc2)s1 [Example 246]		133 to 134 °C		> 100 µM		> 100 µM
